Measurements: patent US20180180626A1, “A METHOD FOR DEVELOPMENT OF RECOMBINANT PROTEINS WITH FINGERPRINT LIKE SIMILARITY TO THE REFERENCE PRODUCT” (STC Biologics, Inc., priority 2014, published 2018)

Tests used:
fucosyl transferase = test: 2AB glycan analysis of trastuzumab biosimilar isolated from CHO cells treated with 2F-Peracetyl-Fucose (FTI); format: cell-based, Chinese Hamster
Method: Chromatography by HPLC or UPLC is another powerful method to analyze recombinant proteins. For example, glycan species can he quantitated using a fluorescent 2AB labeling method. In this method, glycans are first removed from the protein by digestion with N-glycanase and then a fluorescent label is added to each glycan. The glycans can then be resolved using HILIC based chromatography and quantitated by measuring relative area under the curve. For oxidation quantitation an HIC based method can be used.
To obtain a recipe for production of a biosimilar with a similar glycosylation pattern to the original Herceptin®, CHO cells engineered to express the recombinant protein with an amino acid sequence identical to trastuzumab were first grown in the growth media without any inhibitors to establish a baseline. The glycan Species were analyzed using 2AB glycan method. It was observed that Peak 2 (G0) and Peak 6 (G1), and Peak 7 (mannose-5 and G1′) modifications were lower for the biosimilar than their target profile.
G0, G1 and G1′ modifications are non-fucosylated modifications and are controlled by a host protein called fucosyl transferase and the mannose-5 modification is controlled by the host protein known as α-mannosidase 1. Fucosyl transferase can be inhibited by a variety of fucosyltransferase inhibitors shown in FIG. 2, α-mannosidase 1 can be inhibited by kifunensine.
Briefly to obtain trastuzumab with modifications in the target range, cells were placed in growth media and treated with 2F-Peracetyl-Fucose (FTI) on day 7 at different concentrations (20 μM. 10 μM, 5 μM, 1 μM, 0.1 μM) to identify optimal drug concentration. On day 12 cells were harvested and the trastuzumab biosimilar isolated. […] FTI concentrations used to reach target profile are cell specific so it is expected that different concentrations of the FTI or other modulators would be required when a starting cell line is different from the one described in this example.
Different treatment methods such as Method 2 can be used to obtain target profile. For example, FTI can be added on a daily basis starting on day 5 (Table 3, Method 2) rather than on Day 7.

α-mannosidase I = test: 2AB glycan analysis of trastuzumab biosimilar isolated from CHO cells treated with kifunensine (KFI), with FTI; format: cell-based, Chinese Hamster; conditions: treated on Day 7; tested about 0.001 ng/ml-100 ng/ml
Method: Chromatography by HPLC or UPLC is another powerful method to analyze recombinant proteins. For example, glycan species can he quantitated using a fluorescent 2AB labeling method. In this method, glycans are first removed from the protein by digestion with N-glycanase and then a fluorescent label is added to each glycan. The glycans can then be resolved using HILIC based chromatography and quantitated by measuring relative area under the curve. For oxidation quantitation an HIC based method can be used. To obtain a recipe for production of a biosimilar with a similar glycosylation pattern to the original Herceptin®, CHO cells engineered to express the recombinant protein with an amino acid sequence identical to trastuzumab were first grown in the growth media without any inhibitors to establish a baseline. The glycan Species were analyzed using 2AB glycan method. It was observed that Peak 2 (G0) and Peak 6 (G1), and Peak 7 (mannose-5 and G1′) modifications were lower for the biosimilar than their target profile. G0, G1 and G1′ modifications are non-fucosylated modifications and are controlled by a host protein called fucosyl transferase and the mannose-5 modification is controlled by the host protein known as α-mannosidase 1. Fucosyl transferase can be inhibited by a variety of fucosyltransferase inhibitors shown in FIG. 2, α-mannosidase 1 can be inhibited by kifunensine. […]

[1] = Method 2 - […]-[…] FTI every day starting at day 5

In the case of CC(=O)OC1O[C@@H](C)[C@@H](OC(C)=O)[C@@H](OC(C)=O)[C@@H]1F (some centres unmarked) [FTI, 2F-Peracetyl-Fucose], the “G0, G1 and G1′ levels versus target PTM range” value (fucosyl transferase; 10 μM FTI on day 7, harvest day 12) is reported as “matched the target PTM range”, the “G0, G1 and G1′ levels versus target PTM range” value (fucosyl transferase; 20 μM FTI on day 7, harvest day 12) is reported as “increase of G0, G1 and G1′ PTMs above that of target PTMs” and the “modifications versus target range” value (fucosyl transferase; FTI at concentrations lower than 8 μM) is reported as “outside the target range”. The “Glycan Species Peak 2-G0” value (fucosyl transferase; Method 1 - 10 μM FTI - Day 7) was 4%, the “Glycan Species Peak 3” value (fucosyl transferase; Method 1 - 10 μM FTI - Day 7) was 1.5% and the “Glycan Species Peak 4-G0F” value (fucosyl transferase; Method 1 - 10 μM FTI - Day 7) was 44%. The “Glycan Species Peak 5” value (fucosyl transferase; Method 1 - 10 μM FTI - Day 7) was 0.8%, the “Glycan Species Peak 6-G1” value (fucosyl transferase; Method 1 - 10 μM FTI - Day 7) was 1.8% and the “Glycan Species Peak 7- G1F/mannose 5” value (fucosyl transferase; Method 1 - 10 μM FTI - Day 7) was 1.2%. For the same molecule, the “Glycan Species Peak 8- (1,6)G1F” value (fucosyl transferase; Method 1 - 10 μM FTI - Day 7) was 26%, the “Glycan Species Peak 9 (1,3)G1F” value (fucosyl transferase; Method 1 - 10 μM FTI - Day 7) was 11% and the “Glycan Species Peak 10 G2F” value (fucosyl transferase; Method 1 - 10 μM FTI - Day 7) was 6.5%. The “Glycan Species Peak 11” value (fucosyl transferase; Method 1 - 10 μM FTI - Day 7) was 0.2%, the “Glycan Species Peak 12” value (fucosyl transferase; Method 1 - 10 μM FTI - Day 7) was 0.25% and the “Glycan Species Peak 13” value (fucosyl transferase; Method 1 - 10 μM FTI - Day 7) was 0.2%. For the same molecule, the “Glycan Species Peak 14” value (fucosyl transferase; Method 1 - 10 μM FTI - Day 7) was 0.2%, the “Glycan Species Peak 15” value (fucosyl transferase; Method 1 - 10 μM FTI - Day 7) was 0.2% and the “Glycan Species Peak 1” value (fucosyl transferase; Method 1 - 10 μM FTI - Day 7, trastuzumab biosimilar, harvest day 12) was 1.5%. The “Glycan Species Peak 4-G0F” value (fucosyl transferase; [1]) was 44%, the “Glycan Species Peak 8- (1,6)G1F” value (fucosyl transferase; [1]) was 26% and the “Glycan Species Peak 9 (1,3)G1F” value (fucosyl transferase; [1]) was 11%. The “Glycan Species Peak 10 G2F” value (fucosyl transferase; [1]) was 6.5%.
O=C1N[C@@H]2[C@@H](O)[C@@H](O)[C@H](O)[C@@H](CO)N2C1=O [kifunensine] was tested, and the “ideal concentration for optimization of the mannose species” value (α-mannosidase I) was 1 to 10 ng/mL.
